Data as given in patent US10322123B2, “Compound for anti-cancer therapy that acts by targeting GOF mutant P53 and stimulates P73 to restore the P53 pathway signaling” (The Penn State Research Foundation, priority 2014, dated 2019).

How the values were obtained:
[1] = test system: p21, Puma, DR5 and Noxa; experiment: Western blot of p53 target gene proteins; assay type: cell-based, human
Method: (§1) Proteins were extracted from cells and electrophoresed through 4-12% SDS-PAGE then transferred to PVDF membranes. The primary antibodies indicated in the figures were incubated with the transferred PVDF in blocking buffer at 4° C. overnight. Antibody binding was detected on PVDF with appropriate IRDye-secondary antibodies (LI-COR Biosciences, USA) by the ODYSSEY infrared imaging system.

[2] = test system: DLD-1 cells; experiment: CellTiter-Glo cell viability, DLD-1 with Ad-p73 or p73 knock-down; assay type: cell-based, human; settings: for Combination index (CI): DLD-1
Method: Cells at a concentration of 5000 cells/well in 96-well plates were treated with NSC59984 or other drugs. At seventy-two hours after treatment, cells were mixed with an equal volume of CellTiter-Glo reagents (Promega, Madison, Wis.), following the manufacturer's protocol, and bioluminescence imaging was measured using the IVIS imager.
Cells were infected with retrovirus containing the pSIREN-REtrpcQ retroviral vector recombinant with TAp73 RNAi. Cells were cultured with blasticidin for several weeks, and blasticidin-resistant clones were selected. Knock-down of p73 was detected by measuring p73 protein levels by Western blot with anti-p73 antibody (Bethyl laboratories Inc. USA).
Cells were infected with an adenovirus that expresses p73-beta (Ad-p73) or wild type p53 (Ad-p53) and cultured for 24 hr, as previously described (Huang C, et al., Cancer Biol Ther 2009; 8: 2186-93). Then, the infected cells were cultured in fresh medium and subjected to different treatments.
All results were obtained from triplicate experiments, unless other indicated. Statistical analyses were performed using PRISM4 Software (GraphPad Software, Inc., San Diego, Calif., USA), ANOVA and Student's t-test. Statistical significances were determined by p<0.05. Combination indices were calculated using the Chou-Talalay method with CalcuSyn software (biosoft).

[3] = test system: wild-type p53; experiment: Wild-type p53 protein level Western blot; assay type: cell-based, human; settings: 8 hr
Method: as §1

[4] = test system: mutant p53; experiment: Ubiquitination of mutant p53 (immunoprecipitation); assay type: cell-based, human; settings: cancer cells treated with NSC59984 and MG132, 16 hr
Method: (§2) Five hundred micrograms of cell lysate were incubated with 2 μg of antibody overnight at 4° C. Then, 25 μl of protein A-Sepharose beads were added to the lysates. The immunoprecipitated proteins were eluted from protein A-Sepharose beads by boiling with 2× sample buffer and subjected to SDS-PAGE.
as §1

[5] = target: T1, wild-type p53 protein epitope (Homo sapiens, UniProt P04637, R175H); experiment: Wild-type p53 conformation with Pab1620 antibody; assay type: cell-based; settings: RXF393 cells, 24 hr
T1 construct: endogenous in cells; host or cells: RXF393
Method: as §2

[6] = test system: DLD-1 xenograft tumors; experiment: In vivo anti-tumor assay, xenograft; design: species or system mice; settings: 45 mg/kg i.p. every 5 days
Method: (§3) CRL nude mice (female, 4-6 weeks old) were inoculated s.c. in the opposite flanks with 5 million DLD-1 or p73 knock-down DLD-1 cells in an equal volume of martrigel. Treatment with NSC59984 (i.p. injection) was initiated when the tumor masses reached a size of 3-5 mm. NSC59984 (45 mg/kg) was injected by i.p. route every 5 days. Fifteen days after treatment, the mice were euthanized using an institutional animal care and use committee-approved animal protocol.

[7] = test system: p73 knock-down DLD-1 xenograft tumors; experiment: In vivo anti-tumor assay, xenograft; design: species or system mice; settings: 45 mg/kg i.p. every 5 days
Method: as §3

[8] = target: mutant p53 (Homo sapiens, UniProt P04637, P309S/R273H); experiment: Phosphorylation Western blot; assay type: cell-based; design: Phosphorylation of mutant p53 at Thr 55 and phosphorylation of MDM2 at Ser166 were found in SW480 cancer cells; endogenous in cells; host or cells: SW480; settings: SW480 cells
Method: as §1

[9] = HCT116 and p53-null HCT116 cells

CN1CCN(C(=O)/C=C/c2ccc([N+](=O)[O-])o2)CC1 [NSC59984, (E)-1-(4-methylpiperazin-1-yl)-3-(5-nitrofuran-2-yl)prop-2-en-1-one]
p21 protein [1, 9]: up-regulated
protein levels of Puma, DR5 and Noxa [1, 9]: not up-regulated
protein levels of p21, Puma, Noxa and DR5 ([1]; SW480 and DLD-1 cells, increasing doses, 8 hr): significantly up-regulated
up-regulation of endogenous p21, Puma, DR5 and Noxa proteins ([1]; p73 knock-down DLD-1 cells, 8 hr): reduced by p73 knock-down
Combination index (CI) ([2]; Ad-P73 dilution 1:1k, NSC59984 12 μM): 0.273
Combination index (CI) ([2]; Ad-P73 dilution 1:1k, NSC59984 25 μM): 0.12
Combination index (CI) ([2]; Ad-P73 dilution 1:1k, NSC59984 50 μM): 0.033
Combination index (CI) ([2]; Ad-P73 dilution 1:2k, NSC59984 12 μM): 0.357
Combination index (CI) ([2]; Ad-P73 dilution 1:2k, NSC59984 25 μM): 0.127
Combination index (CI) ([2]; Ad-P73 dilution 1:2k, NSC59984 50 μM): 0.039
Combination index (CI) ([2]; Ad-P73 dilution 1:4k, NSC59984 12 μM): 0.303
Combination index (CI) ([2]; Ad-P73 dilution 1:4k, NSC59984 25 μM): 0.121
Combination index (CI) ([2]; Ad-P73 dilution 1:4k, NSC59984 50 μM): 0.037
Combination index (CI) ([2]; Ad-P73 dilution 1:8k, NSC59984 12 μM): 0.319
Combination index (CI) ([2]; Ad-P73 dilution 1:8k, NSC59984 25 μM): 0.115
Combination index (CI) ([2]; Ad-P73 dilution 1:8k, NSC59984 50 μM): 0.036
Combination index (CI) ([2]; Ad-P73 dilution 1:16k, NSC59984 12 μM): 0.239
Combination index (CI) ([2]; Ad-P73 dilution 1:16k, NSC59984 25 μM): 0.098
Combination index (CI) ([2]; Ad-P73 dilution 1:16k, NSC59984 50 μM): 0.027
Combination index (CI) ([2]; Ad-P73 dilution 1:32k, NSC59984 12 μM): 0.636
Combination index (CI) ([2]; Ad-P73 dilution 1:32k, NSC59984 25 μM): 0.282
Combination index (CI) ([2]; Ad-P73 dilution 1:32k, NSC59984 50 μM): 0.078
cell viability, combination with exogenous p73 ([2]; DLD-1 cells infected with Ad-p73): synergized
cell viability ([2]; p73 knock-down DLD-1 cells compared with DLD-1 cells, 72 hr): higher
wild-type p53 protein ([3]; HCT116 cancer cells, 25 and 50 μM): up-regulated
wild-type p53 protein ([3]; MRC-5 normal cells, 50 μM): up-regulated
ubiquitination of mutant p53 [4]: increased ubiquitination
immunohistochemistry staining with Pab1620 [5]: no staining
immunoprecipitation of p53 protein with Pab1620 antibody [5]: no p53 protein bound
xenograft tumor growth ([6]; compared to DMSO control): significantly repressed
tumor weight reduced by ([6]; day 15): 34%
tumor growth suppression [7]: not observed
tumor weight reduced by ([7]; day 15): 18%
phosphorylation of mutant p53 [8]: phosphorylated at Thr55
